Assay results as given in patent publication EP4772186A1, “USE AND COMPOSITION OF POSTBIOTIC OF LACTOBACILLUS PARACASEI ET-22” (Inner Mongolia Yili Industrial Group Co., Ltd., priority 2023, dated 2025).

Assays:
[1] = system: volatile organic compounds (VOCs); test: SPME-GC-MS of volatile organic compounds (VOCs) in saliva fermentation; format: cell-based, halitosis subjects (saliva)
Procedure: Fresh saliva was collected from 10 halitosis subjects (Halimeter index >120). Subjects were required not to consume any food or drink for 2 hours before donating saliva. Saliva was directly spat into a saliva collection tube, 5 ml per person, and mixed. The mixture was centrifuged at 4500 rpm for 10 minutes, and the supernatant was collected, aliquoted, and stored at -80°C for subsequent experimental studies.
(§1) Lysate group: In a headspace vial, 100 µl of saliva was added first, followed by separate addition of ET-22 viable bacteria (1.0×10^9 CFU/ml), ET-22 heat-inactivated bacterial cells (obtained by inactivating viable bacteria at 1.0×10^9 CFU/ml), and lysate (obtained by inactivating and then filtering viable bacteria at 1.0×10^9 CFU/ml), each at 100µl. Then, 800 µl of SHI medium was added. After filling with nitrogen, anaerobic cultivation was performed for 10 hours for loading on machine, and then SPME-GC-MS was used to test the change in content of volatile organic compound.
as §1, with “NAD group:” for “Lysate group:”, “by the” for “by”, “by heat-inactivating” for “by inactivating”, “and NAD (100 µg/ml),” for “and lysate (obtained by inactivating and then filtering viable bacteria at 1.0×10^9 CFU/ml),”, “machine,” for “machine, and”, “the changes” for “the change”
2-hydroxy-3-phenylpropionic acid group: In a headspace vial, 100 µl of saliva was added first, followed by the separate addition of ET-22 viable bacteria (1.0×10^9 CFU/ml), ET-22 heat-inactivated bacterial cells (obtained by heat-inactivating viable bacteria at 1.0×10^9 CFU/ml), and 2-hydroxy-3-phenylpropionic acid (100 µg/ml), each at 100µl. […]
Helium was used as a carrier gas, with a rate remaining at 1.1 mL min-1. […] The flavor characteristic of each compound was determined based on data from the Good Scents Company Information System (http://www.thegoodscentscompany.com).

fadA = test: RT-PCR of virulence factors in multi-species biofilm; format: cell-based, Fusobacterium nucleatum; conditions: relative to ET-22 viable bacteria (ET22-L) and ET-22 heat-inactivated bacteria (ET22-HK)
Procedure: 100 µl of saliva was added to a 24-well plate, then 100 µl of the corresponding concentration solution was added respectively to the experimental groups, and finally 800 µl of SHI medium was added. The plate was placed in an anaerobic box and cultured anaerobically at 37°C for 10 hours. Then, the supernatant was discarded, and the multi-species biofilm adhered to the well plate was obtained. After discarding the supernatant from the incubated biofilm, the biofilm adhered to the bottom of the well plate was re-suspended with sterile water by pipetting, transferred to a 1.5 ml centrifuge tube, and stored until gene sequencing was performed.
This example evaluated the effects of lysate, NAD, 2-hydroxy-3-phenylpropionic acid, polypeptide GP(Hyp)GAG, and peptidoglycan on halitosis virulence factors, including cdl, fadA, mgl, and gtfb. The gene cdl can regulate the expression of L-cysteine […], which can catalyze the degradation of protein substrate to produce VSC, thereby causing halitosis. Fusobacterium nucleatum secretes an amyloid-like adhesin (fadA) via the fap2-like autotransporter protein to enhance its virulence. […]
After the sample RNA was reverse-transcribing into cDNA, RT-PCR reaction was performed to detect biofilm-related virulence factors. Experimental results were calculated using the 2^-△△CT method. […]

Compound: O=C(O)C(O)Cc1ccccc1 (stereo not shown) [2-hydroxy-3-phenylpropionic acid]
- number of flavor-active acid compounds ([1]; among 71 aroma-active VOCs, 100 µg/ml): significantly decreases
- number of flavor-active ester compounds ([1]; among 71 aroma-active VOCs, pure components 100 µg/ml, others from 1.0×10^9 CFU/ml): significantly decreases
- number of alkane compounds (VOCs) ([1]; pure components 100 µg/ml, peptidoglycan from 1.0×10^9 CFU/ml, 10 hours): significantly decreases
- inhibitory effect on the expression of virulence factor fadA (fadA): better
